Laboratory results from patent US20210292736A1, “PROTEIN LABELLING” (The Provost, Fellows, Scholars and other Members of Board …, priority 2020, published 2021).

How the values were obtained:
recombinant DUB OTUB1 = recombinant DUB OTUB1 (Homo sapiens, UniProt Q96FW1); assay: Eosin Y visible light-mediated labelling of recombinant OTUB1; format: biochemical; design: His; conditions: OTUB1 2 μg, probe 1 3 μg; 10 W white light from 50 cm vs UV 365 nm
Procedure: FIG. 13—labelling of OTUB1 (2 μg) with probe 1 (3 μg) visualised by anti-HA western blot. Samples were preincubated for 90 min at 37° C. before the addition of Eosin Y. Samples were incubated for a further 10 min at 37° C. in the dark (lane 3) in ambient light (lane 4) or exposed to a 10 W white light lamp from 10 cm (lane 5).
(§1) FIG. 18—comparative analysis of labelling using Eosin Y as the initiator relative to DPAP and MAP for recombinant enzymes OTUB1 (2 μg) and UCHL1 (2 μg), lanes 2-4 and 5-7, with probe 1 (3 μg) visualised by anti-HA western blot. Samples were preincubated for 90 min at 37° C. Lanes 3 and 6 were degassed for 2 min using N2 before the addition of DPAP and MAP or Eosin Y to the indicated samples. A further incubation was carried out for 10 min at 37° C. while lanes 3 and 6 were exposed to UV light (365 nm) and lanes 4, and 7 were exposed to a 10 W white light lamp from 50 cm.
Firstly, the reactivity of the probe with the recombinant DUB OTUB1 was assessed using Eosin Y as the sole photoinitiator (FIG. 13). Triethanolamine, or similar coinitiators, could be used in combination with Eosin Y. The reaction was initiated using ambient light or a 10 W white light bulb. As a control, an equivalent sample was kept in darkness for the duration of the experiment. […]

UCHL1 = molecular target: T1, UCHL1 (Homo sapiens, UniProt P09936); assay: Eosin Y visible light-mediated labelling of recombinant UCHL1; format: biochemical; conditions: UCHL1 2 μg, probe 1 3 μg; 10 W white light from 50 cm vs UV 365 nm
T1 sequence (P09936 1-223): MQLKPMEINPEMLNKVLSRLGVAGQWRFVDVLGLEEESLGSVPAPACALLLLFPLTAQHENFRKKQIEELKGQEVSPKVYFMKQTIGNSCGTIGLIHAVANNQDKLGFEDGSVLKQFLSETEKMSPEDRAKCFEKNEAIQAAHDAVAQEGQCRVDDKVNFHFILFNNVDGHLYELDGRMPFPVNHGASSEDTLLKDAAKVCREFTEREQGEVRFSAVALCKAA
Procedure: as §1
Once optimised, a comparative labelling was carried out between these optimised Eosin Y labelling conditions versus the conditions optimised for DPAP and MAP labelling (FIG. 18). At this point to check the generality of the method, a further DUB, UCHL1 was tested alongside OTUB1.
Probe 1 ([…]) was incubated with OTUB1 (0.2 μL, 13.78 μg/μL, in storage buffer) or UCHL1 (3.3 μL, 0.9 μg/μL, in storage buffer). The final volume of the labelling was adjusted to 30 μL with homogenisation buffer containing TCEP (1 mM). A stock solution of Eosin Y (0.29 mM in DMSO—homogenisation buffer, 4:1) was prepared fresh before use and protected from light. The reaction was preincubated for 90 min at 37° C. with gentle shaking before the addition of Eosin Y (0.5 μL of stock for recombinant enzyme labelling, final conc.=5 μM). […]

[1] = test system: DUBs in HEK 293T cell lysate; assay: Thiol-ene labelling in HEK293T cell lysate (anti-HA western blot); format: biochemical, H. sapiens; conditions: NEM 10 mM (FIG. 3A lane 8 vs 4)
Procedure: Controls included using NEM (10 mM), the Ub75CH2CH2Br probe (1 μg) and a labelling excluding initiators. (B) HEK 293T cell lysate (50 μg) was pre-incubated for varying periods of time with probe 1 (1 μg) before exposure to UV light (365 nm) for 2 min.
After confirming reactivity with a recombinant DUB, probe 1 was tested in HEK293T cell lysate using conditions analogous to those described for the recombinant enzyme labelling (FIG. 3). […] Exposure time to UV light was optimised, with conditions tested from […] (FIG. 3A, lanes 2-7). No labelling is observed at the 0 minute time point (FIG. 3A, lane 2). There is no discernible difference between the 1 minute and 10 minute timepoints (FIG. 3A, lanes 3 and 4). […] Two further control experiments were performed to validate the need for free thiols and to compare to an existing probe. […] Covalent bond formation therefore requires free cysteine residues. A labelling reaction with the known HA-Ub75CH2CH2Br probe was subjected to the same conditions as the thiol-ene labelling to confirm there was no degradation of the lysate under these conditions (FIG. 3A, lanes 9 and 10).
It was next examined how the pre-incubation period affected the labelling pattern (FIG. 3B, lanes 1-5). It was reasoned that prior to activation, a binding equilibrium must be established between the probe and target enzymes to yield the rapid labelling observed. […]

[2] = test system: DUBs in HEK293T cell lysate; assay: PR-619 pre-incubation assay; format: biochemical, H. sapiens; conditions: lysate pre-incubated with increasing concentrations of PR-619, then probe 1 (1 μg) 90 min, UV 2 min
Procedure: (§2) (A) HEK 293T cell lysate (50 μg) was pre-incubated for 90 min with increasing concentrations of PR-619 before being labelled with the probe 1 (1 μg). (B) HEK 293T cell lysate (50 μg) was pre-incubated with probe 1 (1 μg) for 90 min before PR-619 was added at increasing concentrations. (C) HEK 293T cell lysate (50 μg) was incubated with Ub75CH2CH2Br and PR 619 (100 μM) was added to one sample. All samples were exposed to UV light (365 nm) for 2 min.
(§3) It was next set out to test the modulation of labelling using the known pan DUB inhibitor, PR-619 (X. Tian, N. S. Isamiddinova, R. J. Peroutka, S. J. Goldenberg, M. R. Mattern, B. Nicholson and C. Leach, Assay Drug Dev Technol, 2011, 9, 165-173). PR-619 was incubated with cell lysate for 30 min prior to the addition of probe 1 and the labelling was then carried out under optimised conditions with a 90 min pre-incubation time. […] This implies specificity of probe 1 towards DUBs. […] PR-619 was titrated into the mixture at increasing concentrations and incubated for a further 30 min before the addition of initiators and exposure to UV light (FIG. 4B). A parallel experiment was set up with the Ub75CH2CH2Br probe for comparison (FIG. 4C). […] (FIG. 4C, lanes 2 and 3). To check the integrity of the probe and cell lysate under these conditions a silver stain of the samples was also performed (FIG. 9). […]

[3] = test system: DUBs in HEK293T cell lysate; assay: PR-619 equilibrium disruption assay; format: biochemical, H. sapiens; conditions: probe 1 pre-incubated with lysate 90 min, PR-619 titrated 0-100 μM, further 30 min, UV 2 min
Procedure: as §2, §3

recombinant DUB OTUB1, sequence (Q96FW1 whole entry): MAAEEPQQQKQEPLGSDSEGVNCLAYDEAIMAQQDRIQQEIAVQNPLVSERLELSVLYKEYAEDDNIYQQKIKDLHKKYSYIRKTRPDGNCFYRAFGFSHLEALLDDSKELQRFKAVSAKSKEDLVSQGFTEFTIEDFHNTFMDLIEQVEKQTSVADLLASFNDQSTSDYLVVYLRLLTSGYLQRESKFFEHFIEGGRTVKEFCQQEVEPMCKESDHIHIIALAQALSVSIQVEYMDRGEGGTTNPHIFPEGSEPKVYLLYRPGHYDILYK

With `O=C([O-])c1ccccc1-c1c2cc(Br)c(=O)c(Br)c-2oc2c(Br)c([O-])c(Br)cc12.[Na+].[Na+]` [Eosin Y, reference compound] the “probe capture with Eosin Y relative to DPAP and MAP” value (recombinant DUB OTUB1) was “probe capture was comparable” and the “probe capture with Eosin Y relative to DPAP and MAP” value (UCHL1) was “probe capture was comparable”.
In the case of `CCN1C(=O)C=CC1=O` [NEM, N-ethylmaleimide, reference compound], the “effect on probe 1 labelling” value [1] is reported as “inhibited labelling”.
`N#CSc1cc(SC#N)c(N)nc1N` [PR-619] was tested, and the “effect on probe 1 labelling intensity, inhibitor before probe” value [2] was “concentration-dependent reduction in labelling intensity” and the “effect on probe 1 labelling, inhibitor added after binding equilibrium” value [3] was “abrogates the labelling in a concentration dependent manner”.
